Measurements as given in patent US8415156B2, “Recombinant laminin-521” (Biolamina AB, priority 2010, dated 2013).

Assays:
OCT4 = assay: FACS analysis for Oct4; format: cell-based, human; conditions: after several single cell suspension passages, O3 medium without additives
Protocol: OCT4 expression was analyzed as described in Ludwig, T. E. et al. Derivation of human embryonic stem cells in defined conditions. Nat. Biotechnol. 24, 185-187 (2006). Cells were run on FACSCalibur Flow Cytometer (Becton Dickinson). Data were analyzed with CellQuest software (Becton Dickinson).

[1] = tested on: Oct4, Nanog, SSEA4; PAX6, SOX17, SOX7; assay: Expression of pluripotency and differentiation markers (Example 2); format: cell-based, human; conditions: compared with Matrigel passed as small clumps
Protocol: For immunofluorescence studies, ES cells were cultured and fixed in 8-well slide chambers (BD Biosciences) or 96-well plate wells by 4% paraformaldehyde, permeabilized by 0.1% Triton-X and blocked by 10% bovine fetal serum (GIBCO Invitrogen Corporation) in phosphate-saline buffer (PBS) containing 0.1% Tween-20 (Sigma-Aldrich, St. Louis, www.sigmaaldrich.com) for one hour. Incubation with primary antibody was performed for 1.5 hours at room temperature. Incubation with secondary antibody and 4,6-diamidino-2-phenylindole (DAPI, Molecular Probes) was performed for 40 minutes. Between incubations, the specimens were washed with 0.1% Tween-20 in PBS buffer three to five times. Specimens were preserved in a fluorescence mounting medium (Dako, Glostrup, Denmark, http://www.dako.com), and observed under a fluorescence microscope (Leica, Heerbrugg, Switzerland, http://www.leica.com).
Total RNA was isolated using Absolutely RNA Microprep Kit (Stratagene, La Jolla Calif., www.stratagene.com) according to the manufacturer's instructions. cDNA was synthesized using 0.2 μg of total RNA in 20 μl reaction mixture, containing oligo(dT)12-18 primers and Superscript II reverse transcriptase (GIBCO Invitrogen Corporation), according to the manufacturer's instructions. […] All data was analyzed with 7300 System SDS Software v 1.4. […]

[2] = tested on: hES cell lines HS181 and H1; assay: Karyotyping; format: cell-based, human; conditions: HS181 12 passages and H1 10 passages in O3; H1 7 passages in TeSR2
Protocol: Karyotyping of the cell lines was carried out using standard Q-banding techniques. Samples of cells were treated with colcemid KaryoMAX (0.1 μg/ml; Gibco Invitrogen Corporation) for up to 4 hours, followed by dissociation with Trypsin/EDTA solution (Gibco Invitrogen Corporation). The cells were pelleted via centrifugation and re-suspended in pre-warmed 0.0375 M KCl hypotonic solution and incubated for 10 minutes. Following centrifugation, the cells were resuspended in fixative (3:1 methanol:acetic acid). Metaphase spreads were prepared on glass microscope slides and G-banded by brief exposure to trypsin and stained with 4:1 Gurr's/Leishmann's stain (Sigma-Aldrich Co.). A minimum of 10 metaphase spreads were analyzed and additional 20 were counted.

myosin light chain (MLC) = assay: Western blot of phosphorylated myosin light chain; format: cell-based, human; conditions: one and six hours after plating
Protocol: HS181 cells were trypsinized into single cell suspension as described above. For inhibition experiments, the cells were kept in O3 medium with blocking antibodies or pathway inhibitors for 30 minutes and then 450K cells were plated on 35 mm dishes precoated with the appropriate matrix coating. For other experiments, same number of cells was plated directly after trypsinization. […] After two washings in ice-cold PBS, the plates with cells were snap frozen in liquid nitrogen and stored at −80° C. To prepare samples for western blots and ELISA, the plates were slowly thawed and kept on ice with 100-150 μl of lysis buffer (50 mM Tris-HCl, pH7.5, 150 mM NaCl, 0.5% deoxycholate, 0.5% SDS, 1% Triton X-100, 1% Igepal, Complete™ (Roche) and Phospho-Stop™ (Roche)) on top. Then, the cells were scraped, pipetted and sheared through a 27G ¾″ needle. After that, the cell pellets were clarified by centrifugation at 16,100 rcf for 15 minutes at 4° C. For western blots, 4-12% gradient gels were used for SDS electrophoresis and the proteins were transferred to PVDF membranes. The membrane was hybridized with the antibody of interest according to the manufacturer's instructions. Chemoluminescent HRP-substrate from Amersham Biosciences was used for visualization. For the densitometry analysis the films were scanned at 2,400 dpi and analyzed by the Chemilmager5500 program (1D-Multi Line densitometry mode). […]

[3] = tested on: human embryonic stem cell; assay: Survival after dissociation into single cell suspension (description); format: cell-based; conditions: O3 medium; 30 Kcells/cm^2; precoated dishes
Source text: In other aspects, the present disclosure provides a new material, isolated laminin-521, which permits human embryonic stem cell survival after dissociation into single cell suspension. The stem cells were dissociated into single cell suspension by Trypsin-EDTA treatment, pelleted by centrifugation, resuspended into O3 medium, filtered through a 40 μm sieve, and plated at a density of 30 Kcells/cm^2 on cell culture dishes precoated by either isolated laminin-521, laminin-511, or Matrigel. After one day in culture, the cells plated on Matrigel died, as is known in the art.

Integrin α6β1 = Integrin α6β1 (Homo sapiens, UniProt P05556+P23229); conditions: cited from earlier work
Sequence of Integrin α6β1 (P23229 24-1130): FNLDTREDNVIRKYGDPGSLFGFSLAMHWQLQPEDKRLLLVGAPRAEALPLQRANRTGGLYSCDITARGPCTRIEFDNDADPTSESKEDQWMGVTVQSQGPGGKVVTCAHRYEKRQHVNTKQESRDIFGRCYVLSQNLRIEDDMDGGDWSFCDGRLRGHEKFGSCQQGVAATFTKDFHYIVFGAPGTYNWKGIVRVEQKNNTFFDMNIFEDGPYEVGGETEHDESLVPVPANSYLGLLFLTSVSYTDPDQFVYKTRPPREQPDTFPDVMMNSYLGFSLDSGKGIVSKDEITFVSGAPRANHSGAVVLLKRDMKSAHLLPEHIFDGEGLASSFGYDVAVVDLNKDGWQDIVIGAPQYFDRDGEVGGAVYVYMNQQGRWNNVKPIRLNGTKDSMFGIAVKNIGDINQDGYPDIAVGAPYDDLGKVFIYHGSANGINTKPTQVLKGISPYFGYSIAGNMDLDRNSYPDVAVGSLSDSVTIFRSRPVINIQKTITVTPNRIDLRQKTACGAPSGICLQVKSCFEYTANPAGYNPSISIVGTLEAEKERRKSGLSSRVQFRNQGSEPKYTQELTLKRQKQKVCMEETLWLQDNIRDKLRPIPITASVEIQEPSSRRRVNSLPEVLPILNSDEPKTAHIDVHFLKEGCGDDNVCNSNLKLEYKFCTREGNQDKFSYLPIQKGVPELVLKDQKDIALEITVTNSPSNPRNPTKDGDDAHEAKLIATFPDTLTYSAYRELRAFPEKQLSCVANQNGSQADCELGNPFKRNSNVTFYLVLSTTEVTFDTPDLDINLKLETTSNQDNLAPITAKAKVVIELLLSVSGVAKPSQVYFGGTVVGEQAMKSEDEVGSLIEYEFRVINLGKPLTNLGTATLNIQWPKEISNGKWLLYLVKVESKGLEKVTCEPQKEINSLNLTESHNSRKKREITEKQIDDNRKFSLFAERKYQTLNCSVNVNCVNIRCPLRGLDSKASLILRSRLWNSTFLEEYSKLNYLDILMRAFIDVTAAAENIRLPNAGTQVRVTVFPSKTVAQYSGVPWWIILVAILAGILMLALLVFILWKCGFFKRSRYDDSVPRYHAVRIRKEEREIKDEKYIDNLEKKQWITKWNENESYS
Sequence of Integrin α6β1 (P05556 21-798): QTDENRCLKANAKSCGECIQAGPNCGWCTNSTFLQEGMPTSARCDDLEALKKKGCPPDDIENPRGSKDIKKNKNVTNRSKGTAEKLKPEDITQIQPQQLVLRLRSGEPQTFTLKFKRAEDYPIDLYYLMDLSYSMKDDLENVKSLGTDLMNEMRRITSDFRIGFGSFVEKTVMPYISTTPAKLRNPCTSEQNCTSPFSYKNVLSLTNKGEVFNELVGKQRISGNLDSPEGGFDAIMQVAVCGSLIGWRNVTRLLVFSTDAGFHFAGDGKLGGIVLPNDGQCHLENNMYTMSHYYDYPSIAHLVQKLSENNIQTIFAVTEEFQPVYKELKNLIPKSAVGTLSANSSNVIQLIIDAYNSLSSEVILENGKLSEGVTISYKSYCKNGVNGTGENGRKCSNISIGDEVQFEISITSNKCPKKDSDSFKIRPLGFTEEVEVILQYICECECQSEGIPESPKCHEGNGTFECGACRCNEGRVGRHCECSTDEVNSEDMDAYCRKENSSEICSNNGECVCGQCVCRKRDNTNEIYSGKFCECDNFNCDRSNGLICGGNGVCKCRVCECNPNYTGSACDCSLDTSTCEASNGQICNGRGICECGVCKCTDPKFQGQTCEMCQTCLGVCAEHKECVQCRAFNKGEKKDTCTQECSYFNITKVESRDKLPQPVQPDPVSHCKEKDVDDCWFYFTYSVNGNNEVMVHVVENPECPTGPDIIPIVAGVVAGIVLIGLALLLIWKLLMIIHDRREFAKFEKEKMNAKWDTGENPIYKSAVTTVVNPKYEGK

LN-521: protein formed by joining α5, β2 and γ1 chains together; human recombinant, produced in HEK293 cells
percentage of Oct4 positive (pluripotent) cells compared with Matrigel (OCT4): much higher percentage
expression levels of pluripotency markers Oct4, Nanog, and SSEA4 [1]: stable expression levels
karyotype [2]: normal
phosphorylation of MLC compared with cells on Matrigel and LN-111 (myosin light chain (MLC)): even higher
survival of hES cells plated from single cell suspension after one day in culture [3]: survived and started to proliferate
binding affinity of integrin α6β1 (Integrin α6β1): higher than that for LN-111
